Reference: US20030073740A1, “Methods for treatment of lupus erythematosus” (priority 2001, published 2003)
Structures can show the parent of a compound that is named as a salt.

Columns and labels:
rats [1] = assay: long-term (91-day) safety assessment study in rats; type: in vivo
From the text: These changes were not associated with any gross clinical abnormality.

PDE4 = assay: PDE inhibition, similar protocols: PDE4; type: biochemical
PDE1 = assay: PDE inhibition, similar protocols: PDE1; type: biochemical
rats [2] = assay: seven-day dose-range finding study in rats; type: in vivo; conditions: seven days
PDE5 = target: T1, PDE5 (Homo sapiens, UniProt O76074); assay: competitive binding (with cGMP) to PDE5
T1 construct: partially purified cGMP-specific PDE isolated from HT-29 cells; endogenous in cells; host or cells: HT-29

dogs [3] = assay: 91-day oral study in dogs; type: in vivo
rats [4] = assay: 28-day study in rats; type: in vivo
Description: A 28-day study in rats was also carried out at 0, 50, 500 and 2000 mg/kg/day.

rats [5] = assay: acute toxicity study in rats; conditions: rat, in vivo
human patients = assay: single, escalating dose human clinical trial (safety); type: in vivo; conditions: oral, 50, 100, 200 and 400 mg BID
[6] = target: T2, GST-cGB-PDE5 fusion protein (cGMP binding sites of human PDE5A) (Homo sapiens, UniProt O76074); assay: cGMP binding assay with GST-cGB-PDE5 fusion protein
T2 construct: made in house; host or cells: E. coli BL21 (DE3)
From the text: RT-PCR method is used to obtain the cGB domain of PDE5 with forward and reverse primers designed from bovine PDE5A cDNA sequence (McAllister-Lucas L. M. et al, J. Biol. Chem. 268, 22863-22873, 1993) and the selection among PDE 1-10 families. 5′-3′, Inc. kits for total RNA followed by oligo (dT) column purification of mRNA are used with HT-29 cells. […] It is then cloned into pGEX-5X-3 glutathione-S-transferase (GST) fusion vector (Pharmacia Biotech )with tac promoter, and EcoR1 and XhoI cut sites. The fusion vector is then transfected into E. Coli BL21 (DE3) bacteria (Invitrogen). The transfected BL21 bacteria is grown to log phase, and then IPTG is added as an inducer. The induction is carried at 20° C. for 24 hrs. The bacteria are harvested and lysed. The soluble cell lysate is incubated with GSH conjugated Sepharose 4B (GSH-Sepharose 4B). The GST-cGB-PDE5 fusion protein can bind to the GSH-Sepharose beads, and the other proteins are washed off from beads with excessive cold PBS.
Then, the mixture is transferred to Brandel MB-24 cell harvester with GF/B as the filter membrane followed by 2 washes with 10 mL of cold 5 mM potassium buffer(pH 6.8). The membranes are then cut out and transferred to scintillation vials followed by the addition of 1 mL of H2O and 6 mL of Ready Safe™ liquid scintillation cocktail to each vial. The vials are counted on a Beckman LS 6500 scintillation counter.
The quenching by filter membrane or other debris are also calibrated.

U937 cells = assay: apoptosis induction of U937 cells (active caspase 3 immunofluorescence); type: cell-based; parameters: apoptosis as reflected by active caspase 3 (FIG. 8): dose or concentration left out as unconfirmed; conditions: for Percentage of apoptotic cells / Number of apoptotic cells: 24 hrs; for Number of apoptotic cells: active caspase 3, 500 cells scored
Description: U937 cells (from ATCC Rockville, Md.) were grown in RPMI media supplemented with 5% FCS, glutamine, antibiotic/antimycotic and sodium pyruvate. Total RNA was isolated from two U937 cultures, one treated with 5 nM TPA for 48 hours and one grown in normal media as listed above, using the Rouche High Pure RNA Isolation Kit (cat# 1 828 665) as per manufacturers protocol. cDNA was then synthesized from the total RNA using GibcoBRL SuperscriptII (Cat # 18064-022) reverse transcriptase as per manufacturers protocol. The resulting cDNA was used as a template for RT-PCR reactions using primer sets specific for PDE2 (forward: […], reverse: […]) or PDE5 (forward: […], reverse: […]). mRNA for PDE2 and 5 were both present in the untreated U937 cells. Upon treatment with TPA, the relative amounts of PDE2 mRNA increased 5 fold. Therefore, U937 cells treated with TPA and driven to differentiate into an activated macrophage like state have elevated levels of PDE2 mRNA (see FIG. 1).
The presence of PDE2 and PDE5 protein within U937 cells was confirmed by indirect immunofluorescence (IIF). U937 cells were cultured as above. Two U937 cultures, one grown in the presence of 5 nM TPA for 48 hours and one grown in normal media were processed. All cultures were collected by centrifugation (Shandon Cytospin, 2 minutes @ 600 rpm) onto poly-L lysine-coated slides and immediately fixed in fresh 3% paraformaldehyde buffered in PBS for 10 minutes. Adherent cultures were grown on coverslips and fixed as above. Cells were permeablized in 0.2% triton-100 for 2 minutes. Slides were blocked with blocking buffer (5% goat serum, 5% glycerol, 1% gelatin from cold water fish skin and 0.04% NaN3 in PBS) for 1 hour at room temperature.
Adherent cells were dislodged by treatment with trypsin EDTA for 5 minutes at 37° C. Cells were then processed for IIF as described above, except that an antibody specific for active caspase 3 was used (as per manufacturer's protocol) instead of antibodies to PDE2 or 5 (Promega Cat. #G7481). The anti-active caspase 3 antibody was diluted 1:200 in blocking buffer and processed according to the manufacturer's protocol. The resulting slides were observed under a fluorescent microscope and a digital images were obtained.
The level of apoptosis in U937 cells was quantified by scoring 500 consecutive cells for the presence of active caspase 3.
The cells were harvested and processed for IIF as described above using an antibody that specifically recognizes active caspase 3. […] Therefore, the inhibition of only PDE4 or PDE5 alone (i.e. without the inhibition of PDE2) is not sufficient to induce apoptosis in U937 cells.

[7] = tested on: TNF-α secreted by TPA-induced U937 cells; assay: TNF-α immunoassay on U937 cell culture media; type: cell-based
Description: One function of macrophages is to modulate the activity of other inflammatory cells through various cytokine molecules.
TNF-α levels in the cell culture media were determined by using the TNF-α Immunoassay from R&D Systems (Cat. # DTA50) according to the manufacturer's protocol.

dogs [8] = assay: acute and seven-dose toxicity in dogs (capsules); conditions: dog, in vivo
Description: Therefore, these dogs were subsequently administered seven consecutive doses of 1000 mg/kg/day.

[9] = 28 days, 50, 500 and 2000 mg/kg/day
[10] = U937, TPA 5 nM, 16 hrs, then 1 uM

**Q.** With `CC1=C(CC(=O)NCc2ccccc2)c2cc(F)ccc2/C1=C\c1ccncc1` [Compound 38, (Z)-5-Fluoro-2-Methyl-(4-Pyridylidene)-3-(N-Benzyl) Indenylacetamide Hydrochloride] as the molecule, how does the “clinical biochemistry and hematology” value (rats [1]; 91 days) read?
**A.** The value was “no changes in clinical biochemistry and hematology”.

**Q.** What about the “microscopic finding, follicular cells” value (rats [1]; 91 days, 500 mg/kg/day) of the same molecule?
**A.** The value was “follicular cell hypertrophy”.

**Q.** What about the “microscopic finding, kidneys” value (rats [1]; 91 days, 200 and 500 mg/kg/day) of the same molecule?
**A.** The value was “increase in accumulation of hyalin droplets in the kidneys”.

**Q.** What about the “microscopic finding, liver” value (rats [1]; 91 days, 200 and 500 mg/kg/day) of the same molecule?
**A.** The value was “slight hepatocellular hypertrophy”.

**Q.** What about the organ weights (rats [1]; 91 days, males and females at 200 and 500 mg/kg/day) of the same molecule?
**A.** The organ weights was “dose-related trend to increased liver and thyroid/parathyroid weights”.

**Q.** What about the toxicological effects (rats [1]; oral, 91 consecutive days, 50, 200 and 500 mg/kg/day) of the same molecule?
**A.** Its toxicological effects is “did not produce any major toxicological effects”.

**Q.** And the IC50 (PDE4)?
**A.** The IC50 was 6 µM.

**Q.** What about the IC50 (PDE1) of the same molecule?
**A.** The IC50 was 3 µM.

**Q.** And the signs of toxicity (rats [2]; 50 mg/kg/day)?
**A.** Its signs of toxicity is “no observable signs of toxicity”.

**Q.** And the treatment-related effects (rats [2]; 500 mg/kg/day)?
**A.** Its treatment-related effects is “increase in absolute and relative liver weights in female rats”.

**Q.** And the treatment-related effects (rats [2]; 2000 mg/kg/day)?
**A.** The treatment-related effects was “labored breathing and/or abnormal respiratory sounds, decreased weights gains and food consumption in male rats, and increased liver weights in female rats”.

**Q.** What about the “hematology, blood chemistry, microscopic pathology” value (rats [2]; any dose level (50, 500, 2000 mg/kg/day)) of the same molecule?
**A.** Its value is “No hematological or blood chemistry changes nor any microscopic pathology changes”.

**Q.** What about the “competitive (with cGMP) binding to PDE5” value (PDE5) of the same molecule?
**A.** The value was “does competitively (with cGMP) bind”.

**Q.** And the tolerability (dogs [3]; 91 days)?
**A.** The tolerability was “well tolerated”.

**Q.** What about the feces observation (dogs [3]; 91 days, 150 and 300 mg/kg/day) of the same molecule?
**A.** The feces observation was “Orange discoloration of the feces”.

**Q.** What about the body weights (dogs [3]; 91 days, highest dose group) of the same molecule?
**A.** Its body weights is “Slightly lowered body weights”.

**Q.** What about the liver weights (dogs [3]; 91 days, highest dose group) of the same molecule?
**A.** The liver weights was “increased liver weights”.

**Q.** What about the “microscopic alterations (liver)” value (dogs [3]; 91 days, highest dose group) of the same molecule?
**A.** Its value is “no microscopic alterations”.

**Q.** What about the “route of elimination (suggested by feces colour)” value (dogs [3]; 91 days, oral) of the same molecule?
**A.** Its value is “most of Compound 38 was being eliminated via the feces”.

**Q.** What about the toxicological effects (dogs [3]; oral, 91 consecutive days, 50, 150 and 300 mg/kg/day) of the same molecule?
**A.** Its toxicological effects is “no toxicological effects”.

**Q.** What about the “macroscopic tissue changes at necropsy” value (rats [4]; 28 days) of the same molecule?
**A.** Its value is “No macroscopic tissue changes”.

**Q.** What about the liver weights (rats [4]; 28 days, 2000 mg/kg/day) of the same molecule?
**A.** The liver weights was “statistically significant increase in liver weights”.

**Q.** What about the thyroid weights (rats [4]; 28 days, 2000 mg/kg/day) of the same molecule?
**A.** Its thyroid weights is “statistically significant increases in thyroid weights”.

**Q.** What about the “body weight changes, ophthalmoscopic examinations, hematological and blood chemistry values, urinalysis” value (rats [4]; [9]) of the same molecule?
**A.** Its value is “unremarkable”.

**Q.** What about the clinical observations (rats [4]; [9]) of the same molecule?
**A.** Its clinical observations is “no abnormal clinical observations”.

**Q.** And the “slight liver and thyroid weight increases” value (rats [4]; 28 days, lower doses)?
**A.** The value was “not statistically significant”.

**Q.** And the “histopathological evaluation of tissues” value (rats [4]; 28 days, small number of animals at 2000 mg/kg/day, one female at 500 mg/kg/day)?
**A.** The value was “traces of follicular cell hypertrophy, increased numbers of mitotic figures (suggestive of possible cell proliferation) in the thyroid gland and mild centrilobular hypertrophy in the liver”.

**Q.** And the body weight gain (rats [5]; ip, 1000 mg/kg)?
**A.** The body weight gain was “reduced body weight gain”.

**Q.** And the necropsy findings (rats [5]; ip, 1000 mg/kg)?
**A.** Its necropsy findings is “mesenteric adhesions seen in some animals”.

**Q.** What about the body weight gains (rats [5]; po, 2000 mg/kg) of the same molecule?
**A.** The body weight gains was “slightly reduced”.

**Q.** What about the side effects (human patients) of the same molecule?
**A.** The side effects was “no significant side effects”.

**Q.** And the “binding to the cGMP-binding site of PDE5” value [6]?
**A.** The value was “does not bind”.

**Q.** What about the “Percentage of apoptotic cells” value (U937 cells; [10]) of the same molecule?
**A.** Its value is 78%.

**Q.** And the “Number of apoptotic cells” value (U937 cells; [10])?
**A.** Its value is 392/500.

**Q.** What about the “Percentage of apoptotic cells” value (U937 cells; U937, no TPA treatment, 1 uM) of the same molecule?
**A.** The value was 75%.

**Q.** And the “Number of apoptotic cells” value (U937 cells; U937, no TPA treatment, 1 uM)?
**A.** The value was 375/500.

**Q.** What about the “apoptosis as reflected by active caspase 3 (FIG. 8)” value (U937 cells; U937 cells treated with compound 38) of the same molecule?
**A.** The value was “undergoing apoptosis”.

**Q.** And the induction of apoptosis (U937 cells; differentiated and non-differentiated U937 cell line)?
**A.** Its induction of apoptosis is “causes the induction of apoptosis”.

**Q.** And the “level of TNF-α secreted (FIG. 12)” value [7]?
**A.** The value was “significantly reduced”.

**Q.** What about the signs of toxicity (dogs [8]; 1000 mg/kg) of the same molecule?
**A.** The signs of toxicity was “no signs of toxicity”.

**Q.** What about the “signs of drug-related effects” value (dogs [8]; 1000 mg/kg/day) of the same molecule?
**A.** The value was “At no time in either dosing phase were any obvious signs of drug-related effects observed”.
